Assay results reported in publication PMC9977574 (Gut, 2022).

Target: FKBP8 (FK506 binding protein 8) (Homo sapiens, UniProt Q14318)
Test: microscale thermophoresis competition with recombinant proteins

Sequence of FKBP8 (FK506 binding protein 8) (Q14318 whole entry): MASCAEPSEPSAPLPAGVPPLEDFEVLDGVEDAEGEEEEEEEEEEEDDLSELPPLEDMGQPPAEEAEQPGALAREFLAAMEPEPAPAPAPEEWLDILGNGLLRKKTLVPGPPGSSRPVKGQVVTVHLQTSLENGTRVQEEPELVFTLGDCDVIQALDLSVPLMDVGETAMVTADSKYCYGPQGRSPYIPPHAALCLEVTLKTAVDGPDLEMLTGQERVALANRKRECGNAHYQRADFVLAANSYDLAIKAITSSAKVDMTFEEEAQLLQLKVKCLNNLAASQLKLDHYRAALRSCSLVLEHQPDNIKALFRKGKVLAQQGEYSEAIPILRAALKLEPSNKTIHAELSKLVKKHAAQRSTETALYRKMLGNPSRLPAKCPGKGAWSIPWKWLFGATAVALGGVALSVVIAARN
Sequence of FKBP8 (FK506 binding protein 8) (Q15746 whole entry partner): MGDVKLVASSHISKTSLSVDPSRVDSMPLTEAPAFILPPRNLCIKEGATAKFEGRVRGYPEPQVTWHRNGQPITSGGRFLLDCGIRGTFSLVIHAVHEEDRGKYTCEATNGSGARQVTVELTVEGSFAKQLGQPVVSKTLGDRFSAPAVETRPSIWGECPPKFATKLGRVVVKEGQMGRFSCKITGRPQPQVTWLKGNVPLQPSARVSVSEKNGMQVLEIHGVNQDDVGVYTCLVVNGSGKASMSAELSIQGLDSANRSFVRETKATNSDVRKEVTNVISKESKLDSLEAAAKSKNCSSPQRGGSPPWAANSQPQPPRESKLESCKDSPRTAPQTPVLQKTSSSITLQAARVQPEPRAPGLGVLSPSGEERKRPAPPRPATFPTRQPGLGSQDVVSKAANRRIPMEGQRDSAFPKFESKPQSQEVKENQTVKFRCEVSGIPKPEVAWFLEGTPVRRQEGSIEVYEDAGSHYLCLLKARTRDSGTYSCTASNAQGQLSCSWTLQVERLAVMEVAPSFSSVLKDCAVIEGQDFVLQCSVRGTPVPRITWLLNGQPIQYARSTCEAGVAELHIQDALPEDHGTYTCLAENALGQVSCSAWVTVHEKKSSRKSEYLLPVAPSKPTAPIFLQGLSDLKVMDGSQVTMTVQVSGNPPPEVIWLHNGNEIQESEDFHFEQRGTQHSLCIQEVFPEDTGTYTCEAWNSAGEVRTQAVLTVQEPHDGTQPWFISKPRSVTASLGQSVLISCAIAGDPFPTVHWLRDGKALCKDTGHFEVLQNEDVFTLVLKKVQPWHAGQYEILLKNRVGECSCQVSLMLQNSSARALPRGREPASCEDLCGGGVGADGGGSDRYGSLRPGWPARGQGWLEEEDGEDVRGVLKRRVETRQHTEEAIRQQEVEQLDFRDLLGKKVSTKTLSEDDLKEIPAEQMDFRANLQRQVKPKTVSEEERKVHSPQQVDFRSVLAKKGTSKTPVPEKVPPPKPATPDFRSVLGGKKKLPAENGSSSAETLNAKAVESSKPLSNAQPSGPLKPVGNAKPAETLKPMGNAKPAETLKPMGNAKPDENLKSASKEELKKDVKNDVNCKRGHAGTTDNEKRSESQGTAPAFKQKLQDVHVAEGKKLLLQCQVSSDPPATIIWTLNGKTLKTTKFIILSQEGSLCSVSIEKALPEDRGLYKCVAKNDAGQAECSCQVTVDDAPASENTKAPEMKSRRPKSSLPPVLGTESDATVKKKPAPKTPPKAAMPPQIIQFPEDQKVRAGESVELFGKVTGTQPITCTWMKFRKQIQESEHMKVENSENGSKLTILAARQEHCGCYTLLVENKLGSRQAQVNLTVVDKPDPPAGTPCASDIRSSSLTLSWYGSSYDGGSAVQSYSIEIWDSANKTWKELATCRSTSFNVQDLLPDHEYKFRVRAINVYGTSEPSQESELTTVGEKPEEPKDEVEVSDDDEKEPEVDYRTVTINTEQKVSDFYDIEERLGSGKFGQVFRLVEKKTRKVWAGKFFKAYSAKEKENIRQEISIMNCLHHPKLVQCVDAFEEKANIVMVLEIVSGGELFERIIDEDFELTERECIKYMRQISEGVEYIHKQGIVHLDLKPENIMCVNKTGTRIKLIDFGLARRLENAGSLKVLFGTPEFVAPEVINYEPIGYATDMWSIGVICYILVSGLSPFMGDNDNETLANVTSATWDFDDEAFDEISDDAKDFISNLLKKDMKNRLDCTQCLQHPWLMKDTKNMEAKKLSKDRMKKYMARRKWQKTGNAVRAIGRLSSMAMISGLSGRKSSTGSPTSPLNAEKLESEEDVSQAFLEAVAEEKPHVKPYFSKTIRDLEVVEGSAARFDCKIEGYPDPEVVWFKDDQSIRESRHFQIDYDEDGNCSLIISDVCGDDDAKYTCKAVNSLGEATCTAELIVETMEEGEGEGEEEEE

- IC50: 68.7 ± 13.3 µM
SMILES: C=CC[C@@H]1/C=C(\C)C[C@H](C)C[C@H](OC)[C@H]2O[C@@](O)(C(=O)C(=O)N3CCCC[C@H]3C(=O)O[C@H](/C(C)=C/[C@@H]3CC[C@@H](O)[C@H](OC)C3)[C@H](C)[C@@H](O)CC1=O)[C@H](C)C[C@@H]2OC [tacrolimus]
